According to the supplement of paper PMC10331698:
± gives the standard deviation of the averaged measurements.

How the values were obtained:
Assay in all cases: level (log10 ratio to DMSO vehicle control); higher = higher biomarker level / cell amount than vehicle control
[1] = compound: C=CC(F)(F)C(F)(F)C(F)(F)C(F)(F)C(F)(F)C(F)(F)C(F)(F)C(F)(F)C=C [1,8-Divinylperfluorooctane]; details: in DMSO
Protocol: (§1)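 BioMAP Diversity Plus panel of 12 human primary cell co-culture systems (3C, 4H, LPS, SAg, BT, BF4T, BE3C, CASM3C, HDF3CGF, KF3CT, MyoF, Mphg). Compounds were added 1 h before stimulation and left for 24 h (MyoF 48 h; BT 72 h for soluble read-outs or 6 d for IgG). Biomarkers were read by ELISA, cytotoxicity by SRB, PBMC viability and proliferation by Alamar Blue. Each well value was divided by the mean of 8 DMSO control wells on the same plate and log10 transformed; duplicate blinded samples were tested at 4 concentrations.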

Perfluoropentanoic acid = compound: O=C(O)C(F)(F)C(F)(F)C(F)(F)C(F)(F)F [Perfluoropentanoic acid]; details: in DMSO
Protocol: as §1

[2] = compound: O=C(O)C(F)(F)C(F)(F)C(F)(F)OC(F)(C(F)(F)F)C(F)(F)F [Perfluoro-4-isopropoxybutanoic acid]; details: in DMSO
Protocol: as §1

[3] = compound: O=C(O)C(F)(F)C(F)(F)C(F)F [4H-Perfluorobutanoic acid]; details: in DMSO
Protocol: as §1

Perfluoropropanoic acid = compound: O=C(O)C(F)(F)C(F)(F)F [Perfluoropropanoic acid]; details: in DMSO
Protocol: as §1

[4] = compound: O=C(O)C(F)(F)OC(F)(F)C(F)(F)OC(F)(F)C(=O)O [Perfluoro-3,6-dioxaoctane-1,8-dioic acid]; details: in DMSO
Protocol: as §1

[5] = compound: OCCCC(F)(F)C(F)(F)C(F)(F)C(F)(F)C(F)(F)C(F)(F)C(F)(F)F [7:3 Fluorotelomer alcohol]; details: 6700 nM; in DMSO
Protocol: as §1

Test System | level (log10) ([1]; 6700 nM) | level (log10) ([1]; 20000 nM) | level (log10) (Perfluoropentanoic acid; 6700 nM) | level (log10) (Perfluoropentanoic acid; 20000 nM) | level (log10) (Perfluoropentanoic acid; 60000 nM) | level (log10) ([2]; 6700 nM) | level (log10) ([2]; 20000 nM) | level (log10) ([2]; 60000 nM) | level (log10) ([3]; 6700 nM) | level (log10) ([3]; 20000 nM) | level (log10) ([3]; 60000 nM) | level (log10) (Perfluoropropanoic acid; 6700 nM) | level (log10) (Perfluoropropanoic acid; 20000 nM) | level (log10) (Perfluoropropanoic acid; 60000 nM) | level (log10) ([4]; 6700 nM) | level (log10) ([4]; 20000 nM) | level (log10) ([4]; 60000 nM) | level (log10) [5]
CASM3C:CXCL9/MIG | -0.013 ± 0.0085 | -0.0115 ± 0.011 | 0.001 ± 0.062 | -0.0015 ± 0.036 | 0.043 ± 0.017 | 0.01 ± 0.0014 | 0.0125 ± 0.0021 | 0.044 ± 0.048 | -0.0035 ± 0.028 | 0.0125 ± 0.00071 | 0.032 ± 0.017 | 0.0125 ± 0.015 | 0.0125 ± 0.012 | 0.0255 ± 0.037 | -0.002 ± 0.0057 | -0.011 ± 0.013 | 0.03 ± 0.047 | -0.0125 ± 0.0035
lMphg:IL-1alpha | 0.003 ± 0.027 | 0.046 ± 0.034 | -0.0095 ± 0.022 | -0.0195 ± 0.046 | 0.01 ± 0.05 | -0.005 ± 0.0057 | 0.0045 ± 0.005 | 0.009 ± 0.028 | -0.0055 ± 0.0064 | -0.0355 ± 0.0064 | 0.017 ± 0.035 | -0.0235 ± 0.00071 | -0.019 ± 0.038 | 0.035 ± 0.027 | 0.009 ± 0.018 | 0.001 | 0.0015 ± 0.0035 | 0.017 ± 0.028
KF3CT:TIMP-2 | -0.021 ± 0.021 | -0.0205 ± 0.032 | -0.013 ± 0.037 | -0.0065 ± 0.0035 | 0.017 ± 0.045 | -0.0105 ± 0.011 | -0.005 ± 0.013 | 0.004 ± 0.021 | 0.002 ± 0.031 | -0.011 ± 0.016 | 0.004 ± 0.0099 | 0.014 ± 0.062 | -0.0115 ± 0.0092 | 0.0275 ± 0.012 | -0.0075 ± 0.042 | -0.0015 ± 0.04 | 0.0055 ± 0.011 | -0.0005 ± 0.028
BE3C:MMP-1 | 0.0095 ± 0.069 | 0.0345 ± 0.0092 | -0.015 ± 0.03 | -0.0175 ± 0.029 | 0.027 ± 0.047 | -0.002 ± 0.017 | 0.004 ± 0.025 | 0.0605 ± 0.054 | -0.033 ± 0.059 | -0.0175 ± 0.0035 | 0.008 ± 0.051 | -0.02 ± 0.041 | 0.001 ± 0.0014 | 0.03 ± 0.064 | -0.0085 ± 0.029 | -0.023 ± 0.047 | 0.011 ± 0.025 | 0.016 ± 0.033
MyoF:PAI-I | 0.003 ± 0.0071 | 0.006 ± 0.0071 | -0.0035 ± 0.00071 | 0.005 ± 0.0071 | 0.0075 ± 0.0021 | -0.0035 ± 0.015 | -0.007 ± 0.0042 | 0.006 ± 0.018 | -0.0105 ± 0.019 | -0.023 ± 0.023 | -0.0095 ± 0.011 | -0.0035 ± 0.013 | -0.0165 ± 0.0035 | -0.0035 ± 0.012 | 0.003 ± 0.013 | -0.0005 ± 0.0064 | 0.005 ± 0.0085 | 0.0015 ± 0.0035
MyoF:TIMP-1 | -0.0315 ± 0.054 | 0.01 ± 0.076 | -0.0195 ± 0.023 | -0.043 ± 0.034 | -0.002 ± 0.042 | 0.0135 ± 0.059 | 0.0705 ± 0.083 | 0.0855 ± 0.1 | 0.0045 ± 0.039 | 0.023 ± 0.016 | 0.0465 ± 0.076 | 0.0645 ± 0.077 | 0.05 ± 0.047 | 0.0465 ± 0.12 | 0.0065 ± 0.056 | 0.02 ± 0.037 | 0.026 ± 0.0014 | 0.003 ± 0.017
BE3C:Keratin 8/18 | 0.0015 ± 0.005 | -0.0165 ± 0.005 | -0.006 ± 0.0057 | -0.011 ± 0.0071 | 0.0035 ± 0.032 | -0.0135 ± 0.0021 | -0.024 ± 0.0028 | 0.009 ± 0.013 | -0.017 ± 0.014 | -0.021 ± 0.011 | 0.0075 ± 0.00071 | -0.0185 ± 0.0064 | -0.016 ± 0.028 | 0.017 ± 0.023 | -0.0105 ± 0.0092 | -0.004 ± 0.0014 | 0.0005 ± 0.022 | 0.0155 ± 0.032
CASM3C:CXCL8/IL-8 | -0.017 ± 0.011 | -0.0145 ± 0.015 | -0.01 ± 0.0085 | -0.019 ± 0.011 | -0.0015 ± 0.013 | 0.0115 ± 0.019 | 0.0295 ± 0.016 | 0.076 ± 0.017 | -0.003 ± 0.0057 | 0.004 ± 0.0042 | 0.0135 ± 0.033 | 0.001 ± 0.011 | -0.003 ± 0.023 | 0.0185 ± 0.043 | 0.016 ± 0.042 | 0.0125 ± 0.011 | 0.023 ± 0.0071 | -0.0145 ± 0.005
MyoF:Collagen III | -0.02 ± 0.0071 | -0.0115 ± 0.012 | -0.001 ± 0.0028 | 0.0055 ± 0.0021 | -0.001 ± 0.0085 | -0.0095 ± 0.011 | -0.001 ± 0.0014 | 0.0025 ± 0.021 | 0.022 ± 0.0099 | 0.0155 ± 0.0064 | 0.034 ± 0.014 | 0.0165 ± 0.012 | 0.0135 ± 0.016 | 0.0385 ± 0.015 | 0.0035 ± 0.0078 | -0.005 ± 0.017 | 0.0065 ± 0.015 | -0.0035 ± 0.012
lMphg:CD106/VCAM-1 | -0.014 ± 0.018 | -0.016 ± 0.016 | 0.005 ± 0.02 | 0.0125 ± 0.018 | 0.016 ± 0.0057 | -0.0135 ± 0.013 | 0.0015 ± 0.028 | 0.014 ± 0.0057 | 0.003 ± 0.0028 | 0.0125 ± 0.016 | 0.003 ± 0.014 | -0.008 ± 0.013 | 0.0185 ± 0.0035 | 0.023 ± 0.016 | -0.013 ± 0.0071 | -0.0165 ± 0.0021 | -0.0165 ± 0.036 | -0.009 ± 0.027
MyoF:Collagen IV | -0.023 ± 0.0085 | 0.0115 ± 0.044 | -0.007 ± 0.025 | -0.012 ± 0.016 | -0.0025 ± 0.023 | -0.007 ± 0.035 | -0.0025 ± 0.06 | 0.014 ± 0.047 | 0.0025 ± 0.0035 | 0.0005 ± 0.0035 | 0.023 ± 0.027 | 0.0075 ± 0.0021 | -0.007 ± 0.011 | 0.0145 ± 0.019 | -0.0165 ± 0.013 | -0.011 ± 0.031 | 0.0295 ± 0.00071 | -0.02 ± 0.0085
lMphg:CD62E/E-Selectin | -0.006 ± 0.024 | -0.054 ± 0.038 | 0.012 ± 0.0057 | -0.008 ± 0.014 | 0.003 ± 0.042 | -0.011 ± 0.027 | 0.007 ± 0.038 | 0.0005 ± 0.039 | -0.012 ± 0.0028 | 0.0025 ± 0.0092 | 0.0145 ± 0.0064 | -0.008 ± 0.0057 | -0.004 ± 0.0099 | 0.0385 ± 0.0035 | -0.027 ± 0.034 | -0.018 ± 0.016 | 0.0185 ± 0.0092 | -0.005 ± 0.048
MyoF:Decorin | 0.0075 ± 0.013 | 0.0335 ± 0.022 | -0.015 ± 0.0028 | -0.0125 ± 0.0092 | 0.005 ± 0.048 | 0.008 ± 0.0057 | 0.023 ± 0.027 | 0.065 ± 0.061 | -0.005 ± 0.048 | 0.003 ± 0.064 | 0.0655 ± 0.088 | -0.0255 ± 0.073 | 0.002 ± 0.11 | 0.046 ± 0.089 | -0.0045 ± 0.011 | -0.01 | -0.0005 ± 0.013 | 0.0355 ± 0.059
BE3C:uPA | -0.0245 ± 0.0064 | -0.0315 ± 0.0078 | -0.0115 ± 0.0021 | -0.013 ± 0.0057 | 0.004 ± 0.018 | -0.001 ± 0.0042 | 0.0025 ± 0.012 | 0.0185 ± 0.0064 | -0.016 ± 0.05 | -0.009 ± 0.016 | 0.0055 ± 0.06 | -0.0165 ± 0.044 | 0.0015 ± 0.044 | 0.003 ± 0.041 | -0.0145 ± 0.005 | -0.013 ± 0.014 | -0.0025 ± 0.0064 | 0.0005 ± 0.016
MyoF:SRB | 0.0165 ± 0.013 | 0.006 ± 0.0057 | 0.003 ± 0.0028 | -0.009 ± 0.0014 | -0.004 ± 0.0057 | -0.0055 ± 0.0021 | 0.0015 ± 0.00071 | -0.0035 ± 0.0064 | 0.0005 ± 0.013 | 0.002 ± 0.0085 | 0.0055 ± 0.0021 | 0.0015 ± 0.012 | 0.0005 ± 0.011 | -0.0015 ± 0.0092 | 0 ± 0.011 | -0.007 ± 0.0042 | 0.0065 ± 0.0078 | 0.006 ± 0.0071
MyoF:bFGF | 0.001 ± 0.0099 | 0.012 ± 0.02 | -0.021 ± 0.0014 | -0.0085 ± 0.0078 | -0.0055 ± 0.0035 | -0.014 ± 0.016 | -0.0225 ± 0.026 | -0.004 ± 0.027 | -0.023 ± 0.016 | -0.007 ± 0.02 | 0.0045 ± 0.012 | -0.0175 ± 0.016 | 0.01 ± 0.0028 | 0.015 ± 0.038 | 0.0075 ± 0.021 | 0.001 ± 0.0099 | 0 ± 0.018 | -0.006 ± 0.0028
